Experimental findings from patent US9796711B2, “Substituted pyrazolo[3,4-b]pyridin-6-carboxylic acids and method of use” (AbbVie S.àr.l., priority 2015, dated 2017) are described below.

Assay [1] has as its target T1, ΔF508-CFTR (Homo sapiens, UniProt P13569, DEL508-508).
T1 construct: host or cells: CFBE41o-, doxycycline-inducible
Nature of the assay: CFTR cell surface levels using HRP-tagged ΔF508-CFTR expressing CFBE cells, intrinsic corrector capacity. It counts as cell-based. The settings on record: for EC50: read-out: EC50. In short, it runs like this:
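Here the cells express ΔF508-CFTR with horseradish peroxidase inserted in extracellular loop 4, so only rescued channel at the surface gives luminescent signal. Compounds act on their own, 20 h at the reduced temperature of 33 °C; values are percent activity relative to DMSO and a 3 μM corrector.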

For assay [2], the target named is T1, ΔF508-CFTR. Nature of the assay: CFTR cell surface levels using HRP-tagged ΔF508-CFTR expressing CFBE cells, in the presence of a co-corrector. It counts as cell-based. Particulars: HRP-tagged ΔF508-CFTR expressing CFBE cells, in the presence of 3 μM co-corrector; for EC50: read-out: EC50. In short, it runs like this:
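Cells were seeded with 0.5 μg/mL doxycycline and held 68 h at 37 °C. Test compounds plus 3 μM co-corrector (final 0.1% DMSO) were then added for 20 h at 33 °C. Washed cells received HRP substrate, and luminescence was normalized between DMSO and 3 μM co-corrector controls.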

The mark [3] stands for this setting: HRP-tagged ΔF508-CFTR expressing CFBE cells, intrinsic corrector capacity (no co-corrector), 33° C., 20 hours.
[4] abbreviates: HRP-tagged ΔF508-CFTR CFBE41o- cells, compounds alone (intrinsic corrector capacity), 20 hours at 33° C., positive control 3 μM corrector.
[5] abbreviates: HRP-tagged ΔF508-CFTR CFBE41o- cells, compounds alone (intrinsic corrector capacity), 20 hours at 33° C.

One may read the EC50 as the midpoint of the concentration-response curve.

T1 sequence (P13569 with tags, fused parts or gaps DEL508-508): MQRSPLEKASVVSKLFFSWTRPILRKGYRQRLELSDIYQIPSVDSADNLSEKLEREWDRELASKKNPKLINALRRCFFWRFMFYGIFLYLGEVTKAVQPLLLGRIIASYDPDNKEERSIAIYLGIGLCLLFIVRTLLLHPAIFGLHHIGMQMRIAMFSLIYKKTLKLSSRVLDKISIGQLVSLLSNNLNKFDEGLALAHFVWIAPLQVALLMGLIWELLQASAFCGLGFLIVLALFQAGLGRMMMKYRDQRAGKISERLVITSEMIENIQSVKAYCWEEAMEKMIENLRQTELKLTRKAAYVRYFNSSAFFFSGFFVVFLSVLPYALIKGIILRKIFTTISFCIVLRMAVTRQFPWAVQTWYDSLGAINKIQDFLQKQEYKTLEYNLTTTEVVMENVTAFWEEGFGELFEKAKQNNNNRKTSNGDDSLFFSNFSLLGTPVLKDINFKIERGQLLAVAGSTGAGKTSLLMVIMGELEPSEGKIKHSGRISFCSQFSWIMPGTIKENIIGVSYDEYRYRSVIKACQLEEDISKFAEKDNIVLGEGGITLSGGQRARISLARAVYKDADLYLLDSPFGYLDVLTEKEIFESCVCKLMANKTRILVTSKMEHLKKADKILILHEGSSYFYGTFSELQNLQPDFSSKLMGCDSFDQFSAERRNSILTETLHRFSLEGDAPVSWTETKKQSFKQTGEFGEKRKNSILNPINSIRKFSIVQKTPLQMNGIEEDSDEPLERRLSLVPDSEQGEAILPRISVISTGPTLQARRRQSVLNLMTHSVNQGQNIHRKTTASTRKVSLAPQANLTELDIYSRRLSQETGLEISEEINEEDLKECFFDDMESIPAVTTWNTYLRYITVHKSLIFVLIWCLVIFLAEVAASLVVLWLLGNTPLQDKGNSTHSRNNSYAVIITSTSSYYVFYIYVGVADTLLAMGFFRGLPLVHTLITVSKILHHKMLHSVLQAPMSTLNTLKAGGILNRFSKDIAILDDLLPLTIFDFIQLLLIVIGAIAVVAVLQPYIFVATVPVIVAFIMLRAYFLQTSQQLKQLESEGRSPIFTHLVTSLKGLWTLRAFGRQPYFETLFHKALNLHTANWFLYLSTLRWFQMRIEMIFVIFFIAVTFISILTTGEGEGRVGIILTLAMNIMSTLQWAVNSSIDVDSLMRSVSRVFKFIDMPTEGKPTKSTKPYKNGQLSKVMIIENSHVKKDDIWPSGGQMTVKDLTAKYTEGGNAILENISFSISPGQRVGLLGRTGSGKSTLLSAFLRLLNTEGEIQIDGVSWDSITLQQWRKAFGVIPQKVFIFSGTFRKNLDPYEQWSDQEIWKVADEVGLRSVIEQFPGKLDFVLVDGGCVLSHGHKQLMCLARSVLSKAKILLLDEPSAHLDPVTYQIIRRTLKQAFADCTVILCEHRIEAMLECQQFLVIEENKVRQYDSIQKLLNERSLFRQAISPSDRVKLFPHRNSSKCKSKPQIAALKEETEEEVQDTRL

As to `CC(=O)N1CC[C@H]2CN(c3cc(C(=O)O)nc4c3c(C3CCC3)nn4-c3ccccc3)CC[C@H]21` (single isomer, unassigned) [compound 588], the “% Activation” value in assay [1] (setting [3]) was determined as 232.6%; in assay [2], 469.3%. In addition, the EC50 was 3330 nM in assay [1] (setting [3]) and 2420 nM in assay [2].

Turning to `COc1cccc(-n2nc(C3CCC3)c3c(N4CCC(N5CCOCC5)CC4)cc(C(=O)O)nc32)c1` [compound 822, 3-cyclobutyl-1-(3-methoxyphenyl)-4-[4-(morpholin-4-yl)piperidin-1-yl]-1H-pyrazolo[3,4-b]pyridine-6-carboxylic acid], in assay [1] (setting [3]), the “% Activation” value was found to be 272.3% and the EC50 came out at 301 nM. For the same molecule, in assay [2], the “% Activation” value was determined as 472.75% and the EC50 worked out at 1140 nM.

On to `O=C(O)c1cc(N2CCN(CC3CC3)CC2)c2c(C3CCC3)nn(-c3ccccc3)c2n1` [compound 449, 3-cyclobutyl-4-[4-(cyclopropylmethyl)piperazin-1-yl]-1-phenyl-1H-pyrazolo[3,4-b]pyridine-6-carboxylic acid], for which, in assay [1] (setting [3]), the “% Activation” value turned out to be 139.3% and the EC50 turned out to be 1350 nM. In addition, in assay [2], the “% Activation” value was 298.55% and the EC50 came to 918 nM.

As to `CC(C)c1nn(-c2ccc(F)cc2)c2nc(C(=O)O)cc(N3CCN(CCOCCO)CC3)c12` [compound 778, 1-(4-fluorophenyl)-4-{4-[2-(2-hydroxyethoxy)ethyl]piperazin-1-yl}-3-(propan-2-yl)-1H-pyrazolo[3,4-b]pyridine-6-carboxylic acid], in assay [1] (setting [3]), the “% Activation” value is reported as 9.442% and the EC50 came to 5000 nM. In assay [2], the “% Activation” value is 149% and the EC50 was 1670 nM.

As for `O=C(CN1CCN(c2cc(C(=O)O)nc3c2c(C2CCC2)nn3-c2ccccc2)CC1)NC1CCCCC1` [compound 540, 3-cyclobutyl-4-{4-[2-(cyclohexylamino)-2-oxoethyl]piperazin-1-yl}-1-phenyl-1H-pyrazolo[3,4-b]pyridine-6-carboxylic acid], in assay [1] (setting [3]), the “% Activation” value was determined as 142.2% and the EC50 was found to be 452 nM. Moreover, in assay [2], the “% Activation” value is given as 314.05% and the EC50 worked out at 324 nM.

As for `Cc1nn(-c2ccccc2)c2nc(C(=O)O)cc(OCC3CCCCC3)c12` [compound 152, 4-(cyclohexylmethoxy)-3-methyl-1-phenyl-1H-pyrazolo[3,4-b]pyridine-6-carboxylic acid], the “% Activation” value in assay [1] (setting [4]) was 75.36%; in assay [2], 253.1%. Moreover, the concentration giving a half-maximal response (EC50) in assay [1] (setting [5]) was determined as 2630 nM; in assay [2], 2090 nM.

As for `Cc1nn(-c2ccccc2)c2nc(C(=O)O)cc(OC[C@@H](F)C3CCOCC3)c12` [compound 335, 4-[(2S)-2-fluoro-2-(oxan-4-yl)ethoxy]-3-methyl-I-phenyl-1H-pyrazolo[3,4-b]pyridine-6-carboxylic acid], the “% Activation” value in assay [1] (setting [4]) is on record as 100.33%; in assay [2], 259.25%. In addition, the EC50 is 1610 nM in assay [1] (setting [5]) and 1380 nM in assay [2].

On to `N#CC1CCN(c2cc(C(=O)O)nc3c2c(C2CCC2)nn3-c2ccccc2)CC1` [compound 410, 4-(4-cyanopiperidin-1-yl)-3-cyclobutyl-1-phenyl-1H-pyrazolo[3,4-b]pyridine-6-carboxylic acid], for which, in assay [1] (setting [3]), the “% Activation” value was 155.63% and the EC50 was 557 nM. In assay [2], the “% Activation” value was 317.5% and the EC50 was 228 nM.

Regarding `Cc1cccc(-n2nc(C)c3c(-c4ccc(N5CCOCC5)cc4)cc(C(=O)O)nc32)c1` [compound 13, 3-methyl-1-(3-methylphenyl)-4-[4-(morpholin-4-yl)phenyl]-1H-pyrazolo[3,4-b]pyridine-6-carboxylic acid], the “% Activation” value is recorded as 159.23% in assay [1] (setting [4]) and 363.7% in assay [2]. In addition, the EC50 in assay [1] (setting [5]) is 997 nM; in assay [2] it was 723 nM.

Consider `Cc1nn(-c2ccccc2)c2nc(C(=O)O)cc(N3CCN(CC#N)CC3)c12` [compound 136, 4[4-(cyanomethyl)piperazin-1-yl]-3-methyl-1-phenyl-1H-pyrazolo[3,4-b]pyridine-6-carboxylic acid], for which the “% Activation” value in assay [1] (setting [4]) is reported as 40.405%; in assay [2], 189.95%. The EC50 in assay [1] (setting [5]) and in assay [2] was 3340 nM throughout.

As for `CC(C)c1nn(-c2cc(F)cc(F)c2)c2nc(C(=O)O)cc(-c3ccc(N(C)C4CCOCC4)cc3)c12` [compound 245, 1-(3,5-difluorophenyl)-4-{4-[methyl(oxan-4-yl)amino]phenyl}-3-(propan-2-yl)-1H-pyrazolo[3,4-b]pyridine-6-carboxylic acid], the results for the “% Activation” value in assay [1] (setting [4]) and in assay [2] were 267.15% and 508.37%, respectively. The EC50 is 777 nM in assay [1] (setting [5]) and 627 nM in assay [2].

As to `O=C(O)c1cc(N2CCC3(CC2)CC(F)(F)CO3)c2c(C3CCC3)nn(-c3ccccc3)c2n1` [compound 453, 3-cyclobutyl-4-(3,3-difluoro-1-oxa-8-azaspiro[4.5]decan-8-yl)-1-phenyl-1H-pyrazolo[3,4-b]pyridine-6-carboxylic acid], in assay [1] (setting [3]), the “% Activation” value stood at 110.68% and the EC50 worked out at 716 nM. Moreover, in assay [2], the “% Activation” value was determined as 275.35% and the EC50 is 656 nM.

With `Cc1cccc(-n2nc(C(C)C)c3c(N4CCC(S(C)(=O)=O)C4)cc(C(=O)O)nc32)c1` (stereo not shown) [compound 272, 4-[3-(methanesulfonyl)pyrrolidin-1-yl]-1-(3-methylphenyl)-3-(propan-2-yl)-1H-pyrazolo[3,4-b]pyridine-6-carboxylic acid], the “% Activation” value in assay [1] (setting [4]) is 135.5%; in assay [2], 319.6%. Also, the EC50 in assay [1] (setting [5]) and in assay [2] was 3340 nM throughout.

Turning to `CN(c1ncc(-c2cc(C(=O)O)nc3c2c(C2CCC2)nn3-c2cccc(N3CCCC3)c2)cn1)C1CCOCC1` [compound 277, 3-cyclobutyl-4-{2-[methyl(oxan-4-yl)amino]pyrimidin-5-yl}-1-[3-(pyrrolidin-1-yl)phenyl]-1H-pyrazolo[3,4-b]pyridine-6-carboxylic acid], the entries for the “% Activation” value in assay [1] (setting [4]) and in assay [2] were 356.47% and 608.57%, respectively. The results for the EC50 in assay [1] (setting [5]) and in assay [2] were 513 nM and 515 nM, respectively.

In the case of `CC(C)c1nn(C2CCCCC2)c2nc(C(=O)O)cc(-c3cnc(N4CCOCC4)nc3)c12` [compound 80, 1-cyclohexyl-4-[2-(morpholin-4-yl)pyrimidin-5-yl]-3-(propan-2-yl)-1H-pyrazolo[3,4-b]pyridine-6-carboxylic acid], the “% Activation” value is 184.8% in assay [1] (setting [4]) and 341.92% in assay [2]. Besides, the EC50 is 611 nM in assay [1] (setting [5]) and 2930 nM in assay [2].

Turning to `N#CC1CCN(c2ccc(-c3cc(C(=O)O)nc4c3c(C3CCC3)nn4C3CCCCC3)cc2)CC1` [compound 219, 4-[4-(4-cyanopiperidin-1-yl)phenyl]-3-cyclobutyl-1-cyclohexyl-1H-pyrazolo[3,4-b]pyridine-6-carboxylic acid], the “% Activation” value was 248.7% in assay [1] (setting [4]) and 474.5% in assay [2]. Besides, the EC50 in assay [1] (setting [5]) worked out at 518 nM; in assay [2], 365 nM.
